Experimental data published in the kinase profiling compilation of Christmann-Franck et al. (2016).
One block for each compound: values may come before it.

Key:
Experiment in all cases: radiometric filter-binding kinase assay
NEK6 (human) = NEK6 (human) (UniProt Q9HC98)
[1] = system: RPS6KB1 (human), P23443 [T412E]
CSNK2A1 (human) = CSNK2A1 (human) (UniProt P68400)
[2] = molecular target: STK11 CAB39 STRADA (human) (UniProt Q9Y376+Q7RTN6+Q15831)
MAPKAPK3 (human) = MAPKAPK3 (human) (UniProt Q16644)
MARK3 (human) = MARK3 (human) (UniProt P27448)
MAPK11 (human) = MAPK11 (human) (UniProt Q15759)
INSR (human) = INSR (human) (UniProt P06213)
INSRR (human) = INSRR (human) (UniProt P14616)
JAK2 JH1 JH2 (human) = JAK2 JH1 JH2 (human) (UniProt O60674)
CSNK1D (human) = CSNK1D (human) (UniProt P48730)
RIPK2 (human) = RIPK2 (human) (UniProt O43353)
NTRK1 (human) = NTRK1 (human) (UniProt P04629); conditions: compound 1.0 µM
AURKA (human) = AURKA (human) (UniProt O14965)
MAPK15 (human) = MAPK15 (human) (UniProt Q8TD08)
DYRK2 (human) = DYRK2 (human) (UniProt Q92630)
YES1 (human) = YES1 (human) (UniProt P07947)
MAP3K1 (human) = MAP3K1 (human) (UniProt Q13233)
HIPK2 (human) = HIPK2 (human) (UniProt Q9H2X6)
HIPK1 (human) = HIPK1 (human) (UniProt Q86Z02)
FLT1 (human) = FLT1 (human) (UniProt P17948)
IRAK4 (human) = IRAK4 (human) (UniProt Q9NWZ3)
PRKCA (human) = PRKCA (human) (UniProt P17252)
NEK2 (human) = NEK2 (human) (UniProt P51955)
MAPK1 (human) = MAPK1 (human) (UniProt P28482)
MAPK14 (human) = MAPK14 (human) (UniProt Q16539)
RPS6KA5 KD1 KD2 (human) = RPS6KA5 KD1 KD2 (human) (UniProt O75582)
BTK (human) = BTK (human) (UniProt Q06187)
[3] = system: AKT2 (human), P31751 [S474D]
MKNK2 (human) = MKNK2 (human) (UniProt Q9HBH9)
MARK4 (human) = MARK4 (human) (UniProt Q96L34)
CLK2 (human) = CLK2 (human) (UniProt P49760)
SRPK1 (human) = SRPK1 (human) (UniProt Q96SB4)
MAP3K9 (human) = MAP3K9 (human) (UniProt P80192)
RPS6KA1 KD1 KD2 (human) = RPS6KA1 KD1 KD2 (human) (UniProt Q15418)

INSRR (human), sequence (P14616 whole entry, looked up): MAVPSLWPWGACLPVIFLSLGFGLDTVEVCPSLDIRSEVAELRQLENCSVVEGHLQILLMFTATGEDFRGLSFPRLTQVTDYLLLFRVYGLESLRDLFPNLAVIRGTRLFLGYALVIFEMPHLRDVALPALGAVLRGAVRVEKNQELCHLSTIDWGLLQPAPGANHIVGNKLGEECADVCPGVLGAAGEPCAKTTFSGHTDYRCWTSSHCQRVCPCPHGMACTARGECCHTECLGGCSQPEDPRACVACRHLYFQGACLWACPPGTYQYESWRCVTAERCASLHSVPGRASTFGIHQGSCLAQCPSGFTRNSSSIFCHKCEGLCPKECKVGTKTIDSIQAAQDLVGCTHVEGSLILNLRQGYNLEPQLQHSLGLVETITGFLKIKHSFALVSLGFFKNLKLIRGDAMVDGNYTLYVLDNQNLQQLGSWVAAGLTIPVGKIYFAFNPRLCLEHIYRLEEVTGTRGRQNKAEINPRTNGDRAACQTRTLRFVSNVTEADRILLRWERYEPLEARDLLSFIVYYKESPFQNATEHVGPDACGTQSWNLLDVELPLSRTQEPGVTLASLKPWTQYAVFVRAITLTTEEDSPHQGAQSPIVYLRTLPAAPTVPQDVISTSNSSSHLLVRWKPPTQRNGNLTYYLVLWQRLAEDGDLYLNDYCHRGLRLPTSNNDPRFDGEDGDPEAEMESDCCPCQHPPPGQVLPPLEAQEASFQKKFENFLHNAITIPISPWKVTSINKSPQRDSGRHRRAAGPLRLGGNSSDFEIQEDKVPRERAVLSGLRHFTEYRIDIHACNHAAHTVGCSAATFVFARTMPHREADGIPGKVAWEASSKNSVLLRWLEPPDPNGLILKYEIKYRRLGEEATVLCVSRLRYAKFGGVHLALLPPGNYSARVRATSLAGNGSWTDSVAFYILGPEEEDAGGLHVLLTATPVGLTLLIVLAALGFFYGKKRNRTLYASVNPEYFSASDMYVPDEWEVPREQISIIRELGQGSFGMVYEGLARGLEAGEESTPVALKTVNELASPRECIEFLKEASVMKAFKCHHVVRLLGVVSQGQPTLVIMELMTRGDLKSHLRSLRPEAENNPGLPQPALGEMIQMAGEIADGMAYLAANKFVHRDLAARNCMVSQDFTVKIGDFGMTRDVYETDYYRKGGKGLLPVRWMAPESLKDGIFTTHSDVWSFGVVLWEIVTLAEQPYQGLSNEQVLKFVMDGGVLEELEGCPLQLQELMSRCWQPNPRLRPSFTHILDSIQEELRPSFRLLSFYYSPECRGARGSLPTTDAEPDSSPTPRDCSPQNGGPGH
AKT2 (human), P31751 [S474D], sequence (P31751 whole entry S474D, looked up): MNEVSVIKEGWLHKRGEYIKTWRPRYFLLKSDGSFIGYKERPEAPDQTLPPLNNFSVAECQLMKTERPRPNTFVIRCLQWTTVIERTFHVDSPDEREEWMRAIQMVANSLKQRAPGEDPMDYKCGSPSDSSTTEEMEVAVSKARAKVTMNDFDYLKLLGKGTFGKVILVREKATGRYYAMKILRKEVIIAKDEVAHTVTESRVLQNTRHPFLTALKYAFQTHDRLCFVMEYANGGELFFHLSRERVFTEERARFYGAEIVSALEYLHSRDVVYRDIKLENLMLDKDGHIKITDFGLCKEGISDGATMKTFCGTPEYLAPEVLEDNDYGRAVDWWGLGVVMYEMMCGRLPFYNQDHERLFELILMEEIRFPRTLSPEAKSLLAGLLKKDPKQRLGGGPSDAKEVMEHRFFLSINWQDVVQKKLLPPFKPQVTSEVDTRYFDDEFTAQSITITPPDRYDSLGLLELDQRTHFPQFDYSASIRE
MAPKAPK3 (human), sequence (Q16644 whole entry, looked up): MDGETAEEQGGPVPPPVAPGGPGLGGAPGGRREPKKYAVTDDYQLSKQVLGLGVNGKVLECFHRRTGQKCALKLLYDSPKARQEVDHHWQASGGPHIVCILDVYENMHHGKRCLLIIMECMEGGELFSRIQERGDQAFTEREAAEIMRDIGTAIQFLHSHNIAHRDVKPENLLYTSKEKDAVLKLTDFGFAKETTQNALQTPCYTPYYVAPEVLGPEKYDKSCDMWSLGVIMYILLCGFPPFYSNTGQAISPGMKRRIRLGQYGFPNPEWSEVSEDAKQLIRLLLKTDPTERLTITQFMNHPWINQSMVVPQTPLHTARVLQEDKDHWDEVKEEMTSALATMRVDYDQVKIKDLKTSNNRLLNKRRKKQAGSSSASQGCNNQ
RIPK2 (human), sequence (O43353 whole entry, looked up): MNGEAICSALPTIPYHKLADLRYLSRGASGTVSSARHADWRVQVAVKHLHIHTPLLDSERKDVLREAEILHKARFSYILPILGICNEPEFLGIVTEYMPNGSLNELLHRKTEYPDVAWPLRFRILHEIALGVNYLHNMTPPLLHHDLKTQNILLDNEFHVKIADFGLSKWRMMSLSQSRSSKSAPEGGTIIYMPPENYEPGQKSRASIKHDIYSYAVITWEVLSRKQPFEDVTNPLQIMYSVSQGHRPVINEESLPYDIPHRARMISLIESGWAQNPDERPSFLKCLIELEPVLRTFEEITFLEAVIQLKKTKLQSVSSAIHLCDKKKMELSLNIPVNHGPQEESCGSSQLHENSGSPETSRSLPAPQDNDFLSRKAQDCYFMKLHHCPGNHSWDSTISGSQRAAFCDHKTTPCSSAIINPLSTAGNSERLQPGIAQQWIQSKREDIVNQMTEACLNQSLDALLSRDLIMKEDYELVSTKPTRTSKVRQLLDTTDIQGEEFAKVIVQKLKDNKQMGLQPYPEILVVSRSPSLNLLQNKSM
INSR (human), sequence (P06213 whole entry, looked up): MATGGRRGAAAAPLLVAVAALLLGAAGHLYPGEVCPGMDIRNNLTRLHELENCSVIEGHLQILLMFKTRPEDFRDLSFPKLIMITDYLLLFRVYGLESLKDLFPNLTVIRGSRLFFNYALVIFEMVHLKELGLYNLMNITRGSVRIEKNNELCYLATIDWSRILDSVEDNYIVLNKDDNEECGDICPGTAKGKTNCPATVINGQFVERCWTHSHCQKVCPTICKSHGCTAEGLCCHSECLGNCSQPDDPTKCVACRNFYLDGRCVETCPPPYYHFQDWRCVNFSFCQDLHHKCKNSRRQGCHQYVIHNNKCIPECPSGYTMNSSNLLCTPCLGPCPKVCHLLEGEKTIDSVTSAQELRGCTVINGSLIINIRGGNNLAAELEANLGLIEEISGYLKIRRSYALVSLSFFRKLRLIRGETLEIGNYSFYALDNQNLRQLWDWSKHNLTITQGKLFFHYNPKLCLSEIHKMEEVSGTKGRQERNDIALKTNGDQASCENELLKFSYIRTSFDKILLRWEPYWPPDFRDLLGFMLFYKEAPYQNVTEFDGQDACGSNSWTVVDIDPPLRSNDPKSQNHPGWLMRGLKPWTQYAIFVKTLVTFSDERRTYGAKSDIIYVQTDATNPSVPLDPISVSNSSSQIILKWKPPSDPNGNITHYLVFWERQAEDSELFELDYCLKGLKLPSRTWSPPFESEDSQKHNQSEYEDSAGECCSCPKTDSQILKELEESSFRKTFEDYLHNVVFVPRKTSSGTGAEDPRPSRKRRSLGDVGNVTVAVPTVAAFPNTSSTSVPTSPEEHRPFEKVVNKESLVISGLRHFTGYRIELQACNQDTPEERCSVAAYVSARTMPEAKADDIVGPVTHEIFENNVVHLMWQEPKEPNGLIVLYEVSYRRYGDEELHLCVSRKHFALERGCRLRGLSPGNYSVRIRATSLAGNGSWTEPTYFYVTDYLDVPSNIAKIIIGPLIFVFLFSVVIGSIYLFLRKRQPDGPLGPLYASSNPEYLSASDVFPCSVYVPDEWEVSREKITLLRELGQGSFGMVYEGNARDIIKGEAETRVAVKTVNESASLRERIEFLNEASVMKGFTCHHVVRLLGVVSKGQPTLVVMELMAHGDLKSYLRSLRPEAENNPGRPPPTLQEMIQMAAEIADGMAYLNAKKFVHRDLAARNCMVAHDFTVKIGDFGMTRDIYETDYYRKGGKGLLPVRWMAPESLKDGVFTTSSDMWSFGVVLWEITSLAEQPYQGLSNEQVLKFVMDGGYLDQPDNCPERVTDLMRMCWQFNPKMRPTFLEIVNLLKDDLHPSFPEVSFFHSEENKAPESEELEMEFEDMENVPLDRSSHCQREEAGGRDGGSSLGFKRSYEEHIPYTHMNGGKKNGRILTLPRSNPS
CSNK1D (human), sequence (P48730 whole entry, looked up): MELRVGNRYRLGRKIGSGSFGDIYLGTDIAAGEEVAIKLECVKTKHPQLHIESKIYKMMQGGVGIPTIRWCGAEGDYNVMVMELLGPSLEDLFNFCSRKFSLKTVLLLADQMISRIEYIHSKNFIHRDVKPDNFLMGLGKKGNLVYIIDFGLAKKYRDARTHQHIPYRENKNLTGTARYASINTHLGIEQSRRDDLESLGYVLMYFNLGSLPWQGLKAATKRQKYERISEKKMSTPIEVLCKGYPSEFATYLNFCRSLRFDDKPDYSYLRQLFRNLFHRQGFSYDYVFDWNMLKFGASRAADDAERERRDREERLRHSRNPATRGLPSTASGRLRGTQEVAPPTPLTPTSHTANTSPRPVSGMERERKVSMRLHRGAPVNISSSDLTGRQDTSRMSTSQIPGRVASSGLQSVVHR
AURKA (human), sequence (O14965 whole entry, looked up): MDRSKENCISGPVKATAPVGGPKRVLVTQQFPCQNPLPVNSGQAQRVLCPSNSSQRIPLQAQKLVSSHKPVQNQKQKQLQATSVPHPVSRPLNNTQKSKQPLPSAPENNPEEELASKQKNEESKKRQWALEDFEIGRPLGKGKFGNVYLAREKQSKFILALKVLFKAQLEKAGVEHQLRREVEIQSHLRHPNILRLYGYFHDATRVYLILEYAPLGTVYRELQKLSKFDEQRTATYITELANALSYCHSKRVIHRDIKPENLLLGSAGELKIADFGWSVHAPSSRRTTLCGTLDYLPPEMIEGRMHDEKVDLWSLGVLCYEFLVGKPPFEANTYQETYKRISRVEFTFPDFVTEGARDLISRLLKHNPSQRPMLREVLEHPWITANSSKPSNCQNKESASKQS

residual activity (NEK6 (human); compound 0.1 µM): 88%
residual activity (NEK6 (human); compound 1.0 µM): 96%
residual activity ([1]; compound 0.1 µM): 88%
residual activity ([1]; compound 1.0 µM): 112%
residual activity (CSNK2A1 (human); compound 0.1 µM): 80%
residual activity (CSNK2A1 (human); compound 1.0 µM): 81%
residual activity ([2]; compound 0.1 µM): 78%
residual activity ([2]; compound 1.0 µM): 91%
residual activity (MAPKAPK3 (human); compound 0.1 µM): 104%
residual activity (MAPKAPK3 (human); compound 1.0 µM): 101%
residual activity (MARK3 (human); compound 0.1 µM): 101%
residual activity (MARK3 (human); compound 1.0 µM): 76%
residual activity (MAPK11 (human); compound 0.1 µM): 96%
residual activity (MAPK11 (human); compound 1.0 µM): 82%
residual activity (INSR (human); compound 0.1 µM): 81%
residual activity (INSRR (human); compound 0.1 µM): 72%
residual activity (INSRR (human); compound 1.0 µM): 64%
residual activity (JAK2 JH1 JH2 (human); compound 0.1 µM): 85%
residual activity (JAK2 JH1 JH2 (human); compound 1.0 µM): 77%
residual activity (CSNK1D (human); compound 0.1 µM): 63%
residual activity (CSNK1D (human); compound 1.0 µM): 33%
residual activity (RIPK2 (human); compound 1.0 µM): 42%
residual activity (NTRK1 (human)): 82%
residual activity (AURKA (human); compound 0.1 µM): 107%
residual activity (AURKA (human); compound 1.0 µM): 97%
residual activity (DYRK2 (human); compound 1.0 µM): 56%
residual activity (YES1 (human); compound 0.1 µM): 80%
residual activity (YES1 (human); compound 1.0 µM): 58%
residual activity (MAP3K1 (human); compound 0.1 µM): 85%
residual activity (MAP3K1 (human); compound 1.0 µM): 100%
residual activity (HIPK2 (human); compound 0.1 µM): 85%
residual activity (HIPK2 (human); compound 1.0 µM): 46%
residual activity (HIPK1 (human); compound 0.1 µM): 86%
residual activity (HIPK1 (human); compound 1.0 µM): 78%
residual activity (FLT1 (human); compound 0.1 µM): 59%
residual activity (FLT1 (human); compound 1.0 µM): 32%
residual activity (IRAK4 (human); compound 0.1 µM): 86%
residual activity (IRAK4 (human); compound 1.0 µM): 88%
residual activity (PRKCA (human); compound 0.1 µM): 89%
residual activity (PRKCA (human); compound 1.0 µM): 97%
residual activity (NEK2 (human); compound 0.1 µM): 93%
residual activity (MAPK1 (human); compound 0.1 µM): 99%
residual activity (MAPK1 (human); compound 1.0 µM): 114%
residual activity (MAPK14 (human); compound 0.1 µM): 98%
residual activity (MAPK14 (human); compound 1.0 µM): 113%
residual activity (RPS6KA5 KD1 KD2 (human); compound 0.1 µM): 88%
residual activity (RPS6KA5 KD1 KD2 (human); compound 1.0 µM): 91%
residual activity (BTK (human); compound 1.0 µM): 85%
residual activity ([3]; compound 0.1 µM): 93%
residual activity ([3]; compound 1.0 µM): 106%
residual activity (MKNK2 (human); compound 0.1 µM): 92%
residual activity (MARK4 (human); compound 0.1 µM): 85%
residual activity (MARK4 (human); compound 1.0 µM): 83%
residual activity (CLK2 (human); compound 0.1 µM): 49%
residual activity (CLK2 (human); compound 1.0 µM): 18%
residual activity (SRPK1 (human); compound 0.1 µM): 105%
residual activity (SRPK1 (human); compound 1.0 µM): 104%
residual activity (MAP3K9 (human); compound 0.1 µM): 72%
residual activity (MAP3K9 (human); compound 1.0 µM): 39%
Structure (SMILES): CN(C)C/C=C/C(=O)Nc1cccc(C(=O)Nc2ccc(Nc3nccc(-c4cccnc4)n3)cc2)c1
residual activity (MAPK15 (human); compound 0.1 µM): 46%
residual activity (MAPK15 (human); compound 1.0 µM): 20%

residual activity (RPS6KA1 KD1 KD2 (human); compound 1.0 µM): 92%
residual activity (RPS6KA1 KD1 KD2 (human); compound 10.0 µM): 84%
residual activity (NEK6 (human); compound 1.0 µM): 100%
residual activity (NEK6 (human); compound 10.0 µM): 99%
residual activity ([1]; compound 1.0 µM): 99%
residual activity ([1]; compound 10.0 µM): 99%
residual activity (CSNK2A1 (human); compound 1.0 µM): 87%
residual activity (CSNK2A1 (human); compound 10.0 µM): 71%
residual activity ([2]; compound 1.0 µM): 86%
residual activity ([2]; compound 10.0 µM): 85%
residual activity (MAPKAPK3 (human); compound 1.0 µM): 102%
residual activity (MAPKAPK3 (human); compound 10.0 µM): 95%
residual activity (MARK3 (human); compound 1.0 µM): 91%
residual activity (MARK3 (human); compound 10.0 µM): 87%
residual activity (MAPK11 (human); compound 1.0 µM): 84%
residual activity (MAPK11 (human); compound 10.0 µM): 91%
residual activity (INSR (human); compound 1.0 µM): 102%
residual activity (INSR (human); compound 10.0 µM): 96%
residual activity (INSRR (human); compound 1.0 µM): 66%
residual activity (INSRR (human); compound 10.0 µM): 68%
residual activity (JAK2 JH1 JH2 (human); compound 10.0 µM): 83%
residual activity (CSNK1D (human); compound 1.0 µM): 79%
residual activity (CSNK1D (human); compound 10.0 µM): 93%
residual activity (RIPK2 (human); compound 1.0 µM): 97%
residual activity (RIPK2 (human); compound 10.0 µM): 88%
residual activity (NTRK1 (human)): 88%
residual activity (AURKA (human); compound 10.0 µM): 94%
residual activity (DYRK2 (human); compound 1.0 µM): 95%
residual activity (DYRK2 (human); compound 10.0 µM): 83%
residual activity (YES1 (human); compound 1.0 µM): 117%
residual activity (MAP3K1 (human); compound 1.0 µM): 106%
residual activity (MAP3K1 (human); compound 10.0 µM): 96%
residual activity (HIPK2 (human); compound 1.0 µM): 100%
residual activity (HIPK2 (human); compound 10.0 µM): 98%
residual activity (HIPK1 (human); compound 1.0 µM): 90%
residual activity (HIPK1 (human); compound 10.0 µM): 95%
residual activity (FLT1 (human); compound 1.0 µM): 83%
residual activity (FLT1 (human); compound 10.0 µM): 71%
residual activity (IRAK4 (human); compound 1.0 µM): 90%
residual activity (IRAK4 (human); compound 10.0 µM): 98%
residual activity (PRKCA (human); compound 1.0 µM): 94%
residual activity (PRKCA (human); compound 10.0 µM): 92%
residual activity (NEK2 (human); compound 1.0 µM): 89%
residual activity (NEK2 (human); compound 10.0 µM): 98%
residual activity (MAPK1 (human); compound 1.0 µM): 105%
residual activity (MAPK14 (human); compound 1.0 µM): 105%
residual activity (RPS6KA5 KD1 KD2 (human); compound 1.0 µM): 94%
residual activity (RPS6KA5 KD1 KD2 (human); compound 10.0 µM): 102%
residual activity (BTK (human); compound 1.0 µM): 103%
residual activity (BTK (human); compound 10.0 µM): 101%
residual activity ([3]; compound 1.0 µM): 109%
residual activity ([3]; compound 10.0 µM): 108%
residual activity (MKNK2 (human); compound 1.0 µM): 105%
residual activity (MKNK2 (human); compound 10.0 µM): 91%
residual activity (MARK4 (human); compound 1.0 µM): 96%
residual activity (MARK4 (human); compound 10.0 µM): 85%
residual activity (CLK2 (human); compound 1.0 µM): 81%
residual activity (CLK2 (human); compound 10.0 µM): 77%
residual activity (SRPK1 (human); compound 1.0 µM): 99%
residual activity (SRPK1 (human); compound 10.0 µM): 89%
residual activity (MAP3K9 (human); compound 1.0 µM): 69%
residual activity (MAP3K9 (human); compound 10.0 µM): 47%
Structure (SMILES): Cc1nc(-c2ccc(OCC(C)C)c(C#N)c2)sc1C(=O)O
